What was measured:
VSV-nLuc = test: microbe, parasite or virus in culture; assay type: cell-based; conditions: Vesicular stomatitis virus, Vero C1008, read-out: Antiviral potency (EC50 [µM]) VSV
in vitro [1] = conditions: African green monkey
SINV-GLuc = test: microbe, parasite or virus in culture; assay type: cell-based; conditions: Sindbis virus, Vero C1008; VeroE6 cells; read-out: Antiviral potency (EC50 [µM]) SINV
HPIV3-nLuc = test: microbe, parasite or virus in culture; assay type: cell-based; conditions: Human respirovirus 3, Vero C1008; VeroE6 cells; read-out: Antiviral potency (EC50 [µM]) HPIV3
[2] = tested on: CHIKV-nLuc (181/25 strain); test: microbe, parasite or virus in culture; assay type: cell-based, Chikungunya virus; conditions: Chikungunya virus, 384-well format, read 20 h after infection, read-out: Normalized percent inhibition in primary screen
RSV A2-L19F = test: microbe, parasite or virus in culture; assay type: cell-based; conditions: human respiratory syncytial virus; Hep-2 cells; read-out: Antiviral potency (EC50 [µM]) RSV
SARS-CoV-2-nLuc = test: microbe, parasite or virus in culture; assay type: cell-based; conditions: Severe acute respiratory syndrome coronavirus 2; VeroE6-TMPRSS2 cells; read-out: Antiviral potency (EC50 [µM]) SARS-CoV-2
in vitro [3] = conditions: human
VEEV-TC83-nLuc = test: microbe, parasite or virus in culture; assay type: cell-based; conditions: Venezuelan equine encephalitis virus, Vero C1008, read-out: Antiviral potency (EC50 [µM]) VEEV
CHIKV replicon = test: microbe, parasite or virus in culture; conditions: Chikungunya virus, U2OS, read-out: Antiviral potency (EC50 [µM]) CHKV replicon
in vitro [4] = conditions: human; remark: listed apart in the source

SMILES	EC50 (VSV-nLuc)	CC50 (in vitro [1])	EC50 (SINV-GLuc)	EC50 (HPIV3-nLuc)	inhibition at 5 µM [2]	EC50 (RSV A2-L19F)	EC50 (SARS-CoV-2-nLuc)	CC50 (in vitro [3])	EC50 (VEEV-TC83-nLuc)	EC50 (CHIKV replicon)	selectivity ratio (in vitro [4])
CC(C)(C)c1ccc(C(=O)On2c(-c3ccccc3F)nc3ccccc3c2=O)cc1 [GAP-1000864]	> 20 µM	> 20 µM	> 20 µM	> 20 µM	91%	> 10 µM	> 20 µM	> 20 µM	–	–	–
CCN1CCc2nc3sc(C(=O)c4ccccc4)c(C)c3cc2C1 [GAP-1022776]	> 20 µM	25.2 µM	> 20 µM	> 20 µM	85.7%	> 10 µM	> 20 µM	19.2 µM	–	–	–
O=C(CSc1c2c(nc3cc(Cl)ccc13)CCCC2)Nc1ccc2c(c1)OCCO2 [GAP-1022901]	> 20 µM	> 20 µM	> 20 µM	> 20 µM	82.1%	> 10 µM	> 20 µM	> 20 µM	–	–	–
Cc1ccc(NC(=O)c2oc3ccccc3c2NC(=O)c2nc(S(C)(=O)=O)ncc2Cl)cc1 [GAP-1027276]	> 20 µM	> 20 µM	> 20 µM	> 20 µM	98.2%	> 10 µM	> 20 µM	20 µM	–	–	–
CCS(=O)(=O)c1ncc(Cl)c(C(=O)Nc2nnc(C(C)C)s2)n1 [GAP-1027282]	> 20 µM	> 20 µM	> 20 µM	> 20 µM	97.2%	> 10 µM	> 20 µM	16.7 µM	–	–	–
Cc1ccc2sc(N(CCCN(C)C)C(=O)c3nc4ccccc4s3)nc2c1C [GAP-1041908]	32.7 µM	34.9 µM	18.9 µM	41 µM	94.7%	–	28 µM	31.4 µM	18.8 µM	32.1 µM	< 10
